This is an account of results in patent US11447471B2, “α,β-unsaturated amide compound” (KYOWA KIRIN CO., LTD., priority 2017, dated 2022).

Holding throughout (type): cell-based
The test system of one test is OVTOKO cells. In words: Cell growth inhibitory effect on human ovarian cancer cell line (cell counting kit 8, 6 days). To be noted: 144 h, 6 days incubation. An excerpt: (§1) NCI-H226 cells, a human mesothelioma cell line (ATCC, CRL-5826), NCI-H322 cells, a human lung cancer cell line (the European Collection of Authenticated Cell Cultures, 95111734), OUTOKO cells, a human ovarian cancer cell line (JCRB cell bank, KRB1048) and […] were each subcultured by keeping the cell density under 80% in a RPMI1640 culture medium with 10% fetal bovine serum (FBS). NCI-H226 cells, NCI-H322 cells and SSP-25 cells were each suspended in the RPMI1640 culture medium mentioned above, and plated to a 96-well flat-bottom plate at 500 cells/well in each well, and incubated at 37° C. in an incubator with 5% CO2 for one day. After the incubation, the evaluation of cell growth inhibitory activity was started. OVTOKO cells were suspended in the RPMI1640 culture medium mentioned above, and plated to a 96-well flat-bottom plate at 250 cells/well in each well, and incubated it at 37° C. in an incubator with 5% CO2 for one day. After the incubation, the evaluation of the cell growth inhibitory activity was started. The next day, a test compound was serially diluted to 5 times of its final concentration in the RPM11640 culture medium mentioned above, and the diluted solution was added to each well. In this case, the final concentration of DMSO in each well was adjusted to 0.1%. After the test compound was added, cells were incubated at 37° C. in an incubator with 5% CO2 for 6 days. At the addition of the test compound and 6 days after the addition, the cell counting measurement was performed using a cell counting kit 8 (made by DOJINDO) according to a protocol equivalent to DOJINDO's recommendation. A reagent contained in the kit was added to each plate and color reaction was performed for 2 or 3 hours at 37° C. in an incubator with 5% CO2. After the reaction, an absorbance at wavelength of 450 nm was measured using a microplate reader. A growth inhibition rate was calculated according to the following formula, from which the concentration of a test compound at which cell growth was inhibited by 50% (GI50 value) was determined.
In general terms: Formazan colour is commonly taken as a measure of viable cells.

Another test deals with NCI-H226 cells. In words: Cell growth inhibitory effect on human mesothelioma cell line (cell counting kit 8, 6 days). To be noted: NCI-H226, 144 h.
From the text: as §1

The next test has as its system NCI-H322 cells. Put plainly: Cell growth inhibitory effect on human lung cancer cell line (cell counting kit 8, 6 days). To be noted: 144 h; human lung cancer cell line NCI-H322, 6 days incubation.
From the text: as §1

Another test concerns HuH28 cells. Put plainly: Cell growth inhibitory effect on human liver cancer cell line (cell counting kit 8, 6 days). To be noted: 144 h; human liver cancer cell line HuH28, 6 days incubation.
From the text: as §1

The GI50 is the concentration that inhibits growth by half. Turning to `[H]/C=C/C(=O)NC1CCOc2c1ccc(Oc1ccc(C(F)(F)F)cc1)c2F` (racemic) [Compound 31, N-[8-Fluoro-7-{4-(trifluoromethyl)phenoxy}chroman-4-yl]acrylamide], the results for the GI50 with OVTOKO cells and with NCI-H226 cells were at most 3000 nM and under 100 nM, respectively.

`[H]/C=C/C(=O)NC1CCOc2c1ccc(Oc1ccc(C(F)(F)F)cc1)c2OC` (racemic) [Compound 33, N-[8-Methoxy-7-{4-(trifluoromethyl)phenoxy}chroman-4-yl]acrylamide]: the values for the 50% growth inhibitory concentration (GI50) with OVTOKO cells and with NCI-H226 cells were at most 3000 nM and under 100 nM, respectively.

Take `C=CC(=O)N[C@@H]1CC[C@H](Oc2ccc(C(F)(F)F)cc2)c2nc(C)ccc21` (relative stereo) [Compound 184, cis-N-[2-Methyl-8-{4-(trifluoromethyl)phenoxy}-5,6,7,8-tetrahydroquinolin-5-yl]acrylamide]: the results for the 50% growth inhibitory concentration (GI50) in the test with OVTOKO cells, in the test with NCI-H226 cells and in the test on NCI-H322 cells were at most 3000 nM, under 100 nM and under 1000 nM, respectively.

On to `C=CC(=O)NC1CC[C@H](Oc2ccc(Cl)cc2)c2nc(Cl)ccc21` (stereo in doubt) [Compound 70, cis-N-{2-Chloro-8-(4-chlorophenoxy)-5,6,7,8-tetrahydroquinolin-5-yl}acrylamide], for which the results for the 50% growth inhibitory concentration (GI50) with OVTOKO cells, in the test with NCI-H226 cells and in the test with NCI-H322 cells were at most 3000 nM, under 100 nM and under 1000 nM, respectively.

As to `C=CC(=O)NC1CC[C@H](Oc2ccc(Cl)cc2)c2nc(OC)ccc21` (stereo in doubt) [Compound 71, cis-N-{8-(4-Chlorophenoxy)-2-methoxy-5,6,7,8-tetrahydroquinolin-5-yl}acrylamide], the 50% growth inhibitory concentration (GI50) with OVTOKO cells was at most 3000 nM; in the test on NCI-H226 cells, under 100 nM; in the test on NCI-H322 cells, under 1000 nM.

On to `C=CC(=O)NC1CC[C@H](Oc2ccc(C(F)(F)F)cc2)c2nc(Cl)ccc21` (stereo in doubt) [Compound 76, cis-N-[2-Chloro-8-{4-(trifluoromethyl)phenoxy}-5,6,7,8-tetrahydroquinolin-5-yl]acrylamide], for which the concentration for 50% growth inhibition (GI50) in the test with OVTOKO cells is at most 3000 nM; with NCI-H226 cells, under 100 nM; in the test on NCI-H322 cells, under 1000 nM.

Turning to `C=CC(=O)NC1CC[C@@H](Oc2ccc(C(F)(F)F)cc2)c2nc(Cl)ccc21` (stereo in doubt) [Compound 82, trans-N-[2-Chloro-8-{4-(trifluoromethyl)phenoxy}-5,6,7,8-tetrahydroquinolin-5-yl]acrylamide], the concentration for 50% growth inhibition (GI50) with OVTOKO cells was at most 3000 nM; in the test with NCI-H226 cells, under 100 nM; with NCI-H322 cells, under 1000 nM.

As for `C=CC(=O)N[C@@H]1CC[C@H](Oc2ccc(C(F)(F)F)cc2)c2cnccc21` (stereo in doubt) [Compound 228, N-[8-{4-(Trifluoromethyl)phenoxy}-5,6,7,8-tetrahydroisoquinolin-5-yl]acrylamide], the 50% growth inhibitory concentration (GI50) with NCI-H322 cells is under 1000 nM.

For `C=CC(=O)NCc1cc(Oc2ccc(C(F)(F)F)cc2)c2ncccc2c1` [Compound 214], the 50% growth inhibitory concentration (GI50) in the test on NCI-H226 cells is under 100 nM; with NCI-H322 cells, under 1000 nM.

For the compound `C=CC(=O)NCc1ccc(Oc2ccc(C(F)(F)F)cc2)c2nc(C(C)C)oc12` [Compound 245, N-([2-Isopropyl-4-{4-(trifluoromethyl)phenoxy}benzo[d]oxazol-7-yl]methyl)acrylamide], the concentration for 50% growth inhibition (GI50) in the test with NCI-H226 cells was under 100 nM; in the test with HuH28 cells, under 3000 nM; with NCI-H322 cells it was under 1000 nM.

`C=CC(=O)NCc1ccc(Oc2ccc(C(F)(F)F)cc2)c2nc(-c3ccccc3)oc12` [Compound 246, N-([2-Phenyl-4-{4-(trifluoromethyl)phenoxy}benzo[d]oxazol-7-yl]methyl) acrylamide]: the GI50 with NCI-H226 cells is 100 to 1000 nM; in the test on HuH28 cells, under 3000 nM; in the test with NCI-H322 cells, under 1000 nM.

As for `C=CC(=O)NCc1ccc(Oc2ccc(C(F)(F)F)cc2)c2nc(C(F)(F)F)oc12` [Compound 248, N-([2-(Trifluoromethyl)-4-{4-(trifluoromethyl)phenoxy}benzo[d]oxazol-7-yl]methyl)acrylamide], the GI50 with NCI-H226 cells is 100 to 1000 nM; in the test on NCI-H322 cells it was under 1000 nM.

In the case of `C=CC(=O)NCc1ccc(Oc2ccc(C(F)(F)F)nc2)c2nc(CC)oc12` [Compound 251, N-{(2-Ethyl-4-[{6-(trifluoromethyl)pyridin-3-yl}oxy]benzo[d]oxazol-7-yl)methyl}acrylamide], the GI50 in the test with NCI-H226 cells is under 100 nM; in the test on HuH28 cells it was under 3000 nM; in the test on NCI-H322 cells, under 1000 nM.

Regarding `C=CC(=O)NC1CCOc2nc(Oc3ccc(C(F)(F)F)cc3)ccc21` (stereo not shown) [Compound 259, N-[7-{4-(Trifluoromethyl)phenoxy}-3,4-dihydro-2H-pyrano[2,3-b]pyridin-4-yl]acrylamide], the GI50 in the test on NCI-H226 cells is 100 to 1000 nM; with NCI-H322 cells, under 1000 nM.

Consider `C=CC(=O)NC1COc2ccc(Oc3ccc(C(F)(F)F)cc3)cc21` (stereo not shown) [Compound 262, N-[5-{4-(Trifluoromethyl)phenoxy}-2,3-dihydrobenzofuran-3-yl]acrylamide], for which the GI50 in the test on NCI-H226 cells was under 100 nM; in the test on NCI-H322 cells, under 1000 nM.

For `C=CC(=O)NC1COc2c(Br)cc(Oc3ccc(C(F)(F)F)cc3)cc21` (stereo not shown) [Compound 263, N-[7-Bromo-5-{4-(trifluoromethyl)phenoxy}-2,3-dihydrobenzofuran-3-yl]acrylamide], the GI50 in the test with NCI-H226 cells was under 100 nM; in the test with NCI-H322 cells it was under 1000 nM.

Regarding `C=CC(=O)NC1COc2c(Oc3ccc(C(F)(F)F)cc3)cccc21` (stereo not shown) [Compound 264, N-[7-{4-(Trifluoromethyl)phenoxy}-2,3-dihydrobenzofuran-3-yl]acrylamide], the GI50 in the test on NCI-H226 cells is under 100 nM; with NCI-H322 cells, under 1000 nM.

As for `C=CC(=O)NC1COc2cc(Oc3ccc(C(F)(F)F)cc3)ccc21` (stereo not shown) [Compound 265, N-{6-[4-(Trifluoromethyl)phenoxy]-2,3-dihydrobenzofuran-3-yl}acrylamide], the results for the GI50 with NCI-H226 cells and with NCI-H322 cells were 100 to 1000 nM and under 1000 nM, respectively.

For `C=CC(=O)NC1COc2cc(C)c(Oc3ccc(C(F)(F)F)cc3)cc21` (stereo not shown) [Compound 266, N-{6-Methyl-5-[4-(trifluoromethyl)phenoxy]-2,3-dihydrobenzofuran-3-yl}acrylamide], the concentration for 50% growth inhibition (GI50) is 100 to 1000 nM in the test on NCI-H226 cells and under 1000 nM with NCI-H322 cells.

As for `C=CC(=O)NCc1ccc(CCc2ccc(C(F)(F)F)cc2)c2nc(C)oc12` [Compound 267, N-([2-Methyl-4-{4-(trifluoromethyl)phenethyl}benzo[d]oxazol-7-yl]methyl)acrylamide], the GI50 with OVTOKO cells is at most 3000 nM; in the test with NCI-H226 cells, 100 to 1000 nM.

In the case of `C=CC(=O)NCc1ccc(S(=O)(=O)c2ccc(C(F)(F)F)cc2)c2nc(C)oc12` [Compound 271, N-{(2-Methyl-4-[{4-(trifluoromethyl)phenyl}sulfonyl]benzo[d]oxazol-7-yl)methyl}acrylamide], the values for the GI50 in the test on OVTOKO cells and in the test on HuH28 cells were at most 3000 nM and under 3000 nM, respectively.

Regarding `C=CC(=O)NCc1ccc(/C=C/c2ccc(C(F)(F)F)cc2)c2nc(C)oc12` [Compound 273, (E)-N-([2-Methyl-4-{4-(trifluoromethyl)styryl}benzo[d]oxazol-7-yl]methyl)acrylamide], the 50% growth inhibitory concentration (GI50) was at most 3000 nM in the test with OVTOKO cells, 100 to 1000 nM in the test with NCI-H226 cells and under 3000 nM in the test on HuH28 cells.

`C=CC(=O)NCc1ccc(OC2CCCCC2)c2nc(C)oc12` [Compound 276, N-[{4-(Cyclohexyloxy)-2-methylbenzo[d]oxazol-7-yl}methyl]acrylamide]: the results for the 50% growth inhibitory concentration (GI50) in the test with OVTOKO cells, in the test on NCI-H226 cells and in the test with HuH28 cells were at most 3000 nM, under 100 nM and under 3000 nM, respectively.
